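Five compound concentrations were applied to cells in 96-well plates for 48 hours; endpoints were derived by simple linear interpolation of the resulting dose-response curve. Abbreviation: GI50, concentration required for 50% inhibition of growth.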 Calls of active or inactive are those of the source. No stated cut-off is given here; in the data, active = GI50 up to about 1.1 µM and inactive = higher.
Columns and labels:
Experiment in all cases: NCI tumour cell line growth inhibition, 48 h
NCI-H460 = tested on: NCI-H460
SK-MEL-5 = tested on: SK-MEL-5
OVCAR-8 = tested on: OVCAR-8
SK-OV-3 = tested on: SK-OV-3
HCC 2998 = tested on: HCC 2998
IGROV-1 = tested on: IGROV-1
HOP-62 = tested on: HOP-62
DMS-114 = tested on: DMS-114
786-0 = tested on: 786-0
LOX IMVI = tested on: LOX IMVI
MOLT-4 = tested on: MOLT-4
HL-60 = tested on: HL-60
UACC-257 = tested on: UACC-257
SW-620 = tested on: SW-620
U-251 = tested on: U-251
OVCAR-5 = tested on: OVCAR-5
NCI-H23 = tested on: NCI-H23
NCI-H522 = tested on: NCI-H522
HOP-92 = tested on: HOP-92
MDA-N = tested on: MDA-N

| Structure (SMILES) | GI50 (NCI-H460) | GI50 (SK-MEL-5) | GI50 (OVCAR-8) | GI50 (SK-OV-3) | GI50 (HCC 2998) | GI50 (IGROV-1) | GI50 (HOP-62) | GI50 (DMS-114) | GI50 (786-0) | GI50 (LOX IMVI) | GI50 (MOLT-4) | GI50 (HL-60) | GI50 (UACC-257) | GI50 (SW-620) | GI50 (U-251) | GI50 (OVCAR-5) | GI50 (NCI-H23) | GI50 (NCI-H522) | GI50 (HOP-92) | GI50 (MDA-N) |
| --- | --- | --- | --- | --- | --- | --- | --- | --- | --- | --- | --- | --- | --- | --- | --- | --- | --- | --- | --- | --- |
| COc1cc(C(C)c2cc3c(cc2OCCCCOc2cc4c(cc2C(C)c2cc(OC)c(OC)c(OC)c2)OCO4)OCO3)cc(OC)c1OC (stereo unspecified) | 45.3 µM (inactive) | 29.1 µM (inactive) | 34.8 µM (inactive) | 34.4 µM (inactive) | 29.5 µM (inactive) | 49.9 µM (inactive) | 37.4 µM (inactive) | 15.9 µM (inactive) | 49.2 µM (inactive) | > 100 µM (inactive) | 41.4 µM (inactive) | 37.8 µM (inactive) | 84.7 µM (inactive) | 26.9 µM (inactive) | 29.7 µM (inactive) | > 100 µM (inactive) | 40.4 µM (inactive) |  |  |  |
| Oc1cc(-c2c[nH]c3ccccc23)nc2cc3c(cc12)OCO3 | > 100 µM (inactive) | > 100 µM (inactive) | > 10 µM (inactive) |  | > 100 µM (inactive) | 83.2 µM (inactive) | 84.3 µM (inactive) | > 100 µM (inactive) | > 100 µM (inactive) | > 100 µM (inactive) | > 100 µM (inactive) | > 100 µM (inactive) | > 100 µM (inactive) | > 100 µM (inactive) | > 100 µM (inactive) |  | > 100 µM (inactive) |  |  |  |
| C/C(=N\N(C)C)C(CN1CCCCC1)C(c1ccccc1)c1c(O)c2ccccc2oc1=O (stereo unspecified) | > 100 µM (inactive) | > 100 µM (inactive) | > 100 µM (inactive) | 97.5 µM (inactive) |  | > 100 µM (inactive) | > 100 µM (inactive) | > 100 µM (inactive) | > 100 µM (inactive) | > 100 µM (inactive) | > 100 µM (inactive) | > 100 µM (inactive) | > 100 µM (inactive) | > 100 µM (inactive) | > 100 µM (inactive) | > 100 µM (inactive) | > 100 µM (inactive) | > 100 µM (inactive) |  |  |
| Cc1ccc(S(=O)(=O)N2CCN(S(=O)(=O)c3ccc(C)cc3)CCN(S(=O)(=O)c3ccc(C)cc3)Cc3cc(C#N)c(C#N)cc3CN(S(=O)(=O)c3ccc(C)cc3)CC2)cc1 | > 100 µM (inactive) | > 100 µM (inactive) | > 100 µM (inactive) | > 100 µM (inactive) | > 100 µM (inactive) | > 100 µM (inactive) | > 100 µM (inactive) |  | > 100 µM (inactive) | > 100 µM (inactive) | > 100 µM (inactive) | > 100 µM (inactive) | > 100 µM (inactive) | > 100 µM (inactive) | > 100 µM (inactive) | > 100 µM (inactive) | > 100 µM (inactive) | > 100 µM (inactive) | 25.3 µM (inactive) | 95.7 µM (inactive) |
| CCCCCCCCCCCCCCN [TETRADECYLAMINE] | > 100 µM (inactive) | > 100 µM (inactive) | > 100 µM (inactive) | > 100 µM (inactive) | > 100 µM (inactive) | > 100 µM (inactive) | > 100 µM (inactive) |  | > 100 µM (inactive) | > 100 µM (inactive) | > 100 µM (inactive) | > 100 µM (inactive) | > 100 µM (inactive) | > 100 µM (inactive) | > 100 µM (inactive) | > 100 µM (inactive) | > 100 µM (inactive) | > 100 µM (inactive) | > 100 µM (inactive) | > 100 µM (inactive) |
| NCCCN1CCN(CC(=O)O)CCN(CCCN)CCN(CC(=O)O)CC1 | 6.75 µM (inactive) | 4.5 µM (inactive) | > 86.1 µM (inactive) | > 92 µM (inactive) | 19.5 µM (inactive) | 43.9 µM (inactive) | > 100 µM (inactive) |  | 6.93 µM (inactive) | > 100 µM (inactive) | 7.14 µM (inactive) | 15.3 µM (inactive) | > 100 µM (inactive) | 9.91 µM (inactive) | > 100 µM (inactive) | > 38.9 µM (inactive) | > 100 µM (inactive) | 24.7 µM (inactive) | > 100 µM (inactive) | > 35.9 µM (inactive) |
| COC(=O)[C@@H](NC1(c2ccccc2)c2ccccc2-c2ccccc21)[C@H](OC(=O)[C@H]1CCCN1S(=O)(=O)c1ccccc1)C(=O)OC | > 100 µM (inactive) | > 100 µM (inactive) | > 100 µM (inactive) | 70.6 µM (inactive) | > 100 µM (inactive) | > 100 µM (inactive) | > 100 µM (inactive) |  | > 100 µM (inactive) | > 100 µM (inactive) | > 100 µM (inactive) | > 100 µM (inactive) | > 100 µM (inactive) | > 100 µM (inactive) | > 100 µM (inactive) | > 100 µM (inactive) | > 100 µM (inactive) | 82.2 µM (inactive) | < 0.01 µM (active) | 72.9 µM (inactive) |
| COc1cc2c(c3c1c(=O)c1ccccc1n3C)C=CC1(CCCC1)O2 | 10.2 µM (inactive) | 12.9 µM (inactive) | 18.4 µM (inactive) | 21.6 µM (inactive) | 21.8 µM (inactive) | 12.9 µM (inactive) | 12.8 µM (inactive) |  | 6.56 µM (inactive) | 1.02 µM (active) | 26.2 µM (inactive) | 7.29 µM (inactive) | 15.9 µM (inactive) | 20.4 µM (inactive) | 12.8 µM (inactive) | 12.9 µM (inactive) | 12.9 µM (inactive) | 16.3 µM (inactive) | 16.6 µM (inactive) | 15.3 µM (inactive) |
| O=c1ccn(C2(CO)C=C(CO)C(O)C2O)c(=O)[nH]1 (stereo unspecified) | > 25.7 µM (inactive) | > 25.7 µM (inactive) | > 25.7 µM (inactive) | > 25.7 µM (inactive) | > 25.7 µM (inactive) | > 25.7 µM (inactive) | > 25.7 µM (inactive) | > 25.7 µM (inactive) | > 25.7 µM (inactive) |  | > 25.7 µM (inactive) | > 25.7 µM (inactive) | > 25.7 µM (inactive) | > 25.7 µM (inactive) | > 25.7 µM (inactive) |  |  | > 25.7 µM (inactive) |  |  |
| O=C1Nc2ccccc2/C1=N/NC(=S)N1CCCC1 | 0.499 µM (active) | 0.585 µM (active) | 1.02 µM (active) | 5.12 µM (inactive) | 0.586 µM (active) | 1.87 µM (inactive) | 1.19 µM (inactive) |  | 0.647 µM (active) | 0.673 µM (active) | 0.193 µM (active) | 0.583 µM (active) | 6.97 µM (inactive) | 0.766 µM (active) | 0.867 µM (active) | 12.8 µM (inactive) | 3.01 µM (inactive) | 2.12 µM (inactive) | 8.38 µM (inactive) | 3.4 µM (inactive) |
| Cn1cc(NC(=O)Nc2cc(C(=O)Nc3cc(C(=O)Nc4ccc5cc(S(=O)(=O)O)cc(S(=O)(=O)O)c5c4)n(C)c3)n(C)c2)cc1C(=O)Nc1cc(C(=O)Nc2ccc3cc(S(=O)(=O)O)cc(S(=O)(=O)O)c3c2)n(C)c1 | > 100 µM (inactive) | > 100 µM (inactive) | > 100 µM (inactive) | > 100 µM (inactive) | > 100 µM (inactive) | > 100 µM (inactive) | > 100 µM (inactive) |  | > 100 µM (inactive) | > 100 µM (inactive) | > 100 µM (inactive) | > 100 µM (inactive) | > 100 µM (inactive) | > 100 µM (inactive) | > 100 µM (inactive) | > 100 µM (inactive) | > 100 µM (inactive) | > 100 µM (inactive) | 90.8 µM (inactive) | > 100 µM (inactive) |
| C=C1C(=O)OC2/C=C(/C)C3(O)OC(C)(CC(OC(=O)C(C)C)C12)CC3OC(C)=O (stereo unspecified) | 3.9 µM (inactive) | 6.31 µM (inactive) | 3.27 µM (inactive) | 7.59 µM (inactive) | 4.53 µM (inactive) | 4.5 µM (inactive) | 30.4 µM (inactive) |  | 5.27 µM (inactive) | 8.87 µM (inactive) | 4.36 µM (inactive) | 2.64 µM (inactive) | 16.4 µM (inactive) | 4.19 µM (inactive) | 8 µM (inactive) | 12.9 µM (inactive) | 3.34 µM (inactive) | 1.91 µM (inactive) | 13.3 µM (inactive) | 2.04 µM (inactive) |
| CON1C(=O)C2(CCCCC2)C(=O)C12C=CC(C)CC2 (stereo unspecified) | > 100 µM (inactive) | 38 µM (inactive) | > 100 µM (inactive) | > 100 µM (inactive) | > 100 µM (inactive) | > 100 µM (inactive) | > 100 µM (inactive) | 46.7 µM (inactive) | > 100 µM (inactive) | > 100 µM (inactive) | 78.9 µM (inactive) | 49.5 µM (inactive) | 69.8 µM (inactive) | > 100 µM (inactive) | > 100 µM (inactive) |  | > 100 µM (inactive) | 95.1 µM (inactive) |  |  |
| Cc1noc2nnn(-c3ccc(Cl)cc3)c(=O)c12 | 6.43 µM (inactive) | 3.82 µM (inactive) | 2.69 µM (inactive) | 5.52 µM (inactive) | 2.15 µM (inactive) | 5.33 µM (inactive) | 12.8 µM (inactive) |  | 2.45 µM (inactive) | 2.5 µM (inactive) | 0.364 µM (active) | 1.39 µM (inactive) | 7.5 µM (inactive) | 0.67 µM (active) | 4.92 µM (inactive) | 7.23 µM (inactive) | 4.75 µM (inactive) | 0.5 µM (active) | 6.4 µM (inactive) | 6.01 µM (inactive) |
| COc1cc2c(c(O)c1OC)-c1c(cc(OC)c(OC)c1OC)CC(C)C(C)C2 (stereo unspecified) [GOMISIN K3] | 31.2 µM (inactive) | 35.6 µM (inactive) | 51.9 µM (inactive) | 82.4 µM (inactive) | 42.3 µM (inactive) | 51.1 µM (inactive) | > 100 µM (inactive) |  | 37.7 µM (inactive) | 49.9 µM (inactive) | 16.6 µM (inactive) | 25.5 µM (inactive) | 25.6 µM (inactive) | 70.3 µM (inactive) | 49.9 µM (inactive) | > 100 µM (inactive) | 49 µM (inactive) | 44.6 µM (inactive) | 36.7 µM (inactive) | 73.3 µM (inactive) |
